{"source": "PubChem BioAssay AID2060497", "about": "(Molecular Pharmacology Branch, DTP, NCI, 2025)", "system": "317291-083-R-J1-PDC complex spheroids, viability", "assay": "Anticancer human tumor 317291-083-R-J1-PDC patient-derived soft tissue sarcoma cell line growth inhibition [GQUAD]", "settings": "for viability, T/C: stronger effect = lower value", "source_text": "DNA G-quadruplex Stabilizer Agents in Combinations in Complex Spheroids\nA high-throughput screen of multi-cell type tumor spheroids was designed to identify active combinations of DNA G-quadruplex stabilizer agents and targeted small molecules. Complex spheroids include a stromal component modeled by human endothelial cells (HUVEC) and fibroblasts modeled by human mesenchymal stem cells (MSCs). The concentration ranges selected for each drug and investigational agent were based upon clinically achievable concentrations if the clinical Cmax of the agent was known.\nCompounds. The drugs and investigational agents: pidnarulex (CX-5461; NSC782164), APTO-253 (NSC789042), BRACO-19 (NSC847499), peposertib (NSC802822), ceralasertib (NSC780249), elimusertib (NSC800525), camonsertib (NSC841442), AZD-1390 (NSC803789), olaparib (NSC753686), talazoparib (NSC767125), ART-558 (NSC835418), sotorasib (NSC818433), MRTX-1133 (NSC836407), SN-38 (NSC673596), topotecan (NSC609699), etoposide (NSC141540), doxorubicin (NSC123127), gemcitabine (NSC613327), 5-fluorouracil (NSC19893), paclitaxel (NSC125973), vemurafenib (NSC761431), panobinostat (NSC761190), R-306465 (JNJ-16241199; NSC773264), adavosertib (NSC754352), TP-3654 (NSC805149), carboplatin (NSC241240), KSQ-4279 (NSC840948), and staurosporine (NSC755774) were obtained from the National Cancer Institute (NCI) Developmental Therapeutics Program Chemical Repository (34). The FDA-approved anticancer drug set is available from the NCI Developmental Therapeutics Program. […] The stock solutions were prepared in dimethyl sulfoxide (DMSO, Sigma-Aldrich, St. Louis, MO, cat. D2650) at 800-fold the tested concentration and stored at -70 degrees C prior to their use. All drugs and investigational agents were tested over a range starting from a high concentration at or near the clinical Cmax and decreasing in half-log increments. If the clinical Cmax for an agent had not been determined, the highest concentration tested was 10 microM.\n2.3 Cell Culture. All cells were maintained in an incubator at 37 degrees C and 5% CO2 with 95% humidity. The PDC lines were cultured according to standard operating procedures established by the NCI PDMR. All PDCs were thawed and cultured in Matrigel-coated flasks prepared with a working solution of 1X Ham's F-12 nutrient mix, without supplementation (Invitrogen, cat. 11765054), 100 U/mL penicillin-streptomycin (Invitrogen, cat. 15140122), and 2.5% Matrigel (Corning Inc., cat. 354248) for the first three passages. The 857933-349-R-J2-PDC line was cultured in 6C/Colon 1B media, which includes advanced DMEM/F-12 (Thermo Fisher Scientific, cat. 12634028), 10 mM HEPES (Thermo Fisher Scientific, cat. 15630080), 1X GlutaMAX supplement (Thermo Fisher Scientific, cat. 35050061), 0.1 mg/mL primocin (InvivoGen, cat. ant-pm-2), 10% defined fetal bovine serum, heat inactivated (HyClone Laboratories Inc., cat. SH30070.03HI), 50% L-WRN conditioned media (ATCC, cat. CRL-3276), 1.25 mM N-Acetyl-L-cysteine (Sigma-Aldrich, cat. A9165), 10 mM nicotinamide (Sigma-Aldrich, cat. N0636), 1X B-27 supplement (Thermo Fisher Scientific, cat. 17504044), 1X N-2 supplement (Thermo Fisher Scientific, cat. 17502048), 10 microM Y-27632 dihydrochloride (Tocris Bioscience, cat. 1254), and 50 ng/mL human EGF recombinant protein (Thermo Fisher Scientific, cat. PHG0311). The 485176-168-R4-J1-PDC line was cultured in Panc media, which includes all 6C/Colon 1B media components plus 100 ng/mL human FGF-10 (Thermo Fisher Scientific, cat. 100-26), 500 nM SB-431542 (Selleckchem, cat. S1067), and gastrin (Tocris, cat. 3006).\n[…]", "note": "Several values for one entry are separate records, joined by “and”; a condition that tells them apart may be missing. Equal entries are not always repeated."}
{"compound": "CC1COCCN1c1cc(C2(S(C)(=N)=O)CC2)nc(-c2ccnc3[nH]ccc23)n1", "note": "(centres undefined);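 further: spheroids exposed to compounds for one week before readout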;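 on viability, T/C: percent viability relative to DMSO vehicle wells taken as 100%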", "values": [{"measurement": "viability, T/C", "setting": "compound 0.0316 µM", "value": "88.1% and 103% and 100%"}, {"measurement": "viability, T/C", "setting": "compound 0.1 µM", "value": "104% and 90.7% and 106%"}, {"measurement": "viability, T/C", "setting": "compound 0.316 µM", "value": "91.8% and 90.3% and 101%"}, {"measurement": "viability, T/C", "setting": "compound 1 µM", "value": "50.2% and 61.5% and 87%"}, {"measurement": "viability, T/C", "setting": "compound 3.16 µM", "value": "23.9% and 23.1% and 24.4%"}, {"measurement": "viability, T/C", "setting": "compound 10 µM", "value": "13.9% and 18.3% and 13.1%"}, {"measurement": "IC50", "setting": "curve of compound", "value": "1050 nM and 1400 nM and 1980 nM"}]}
{"compound": "Nc1ccn(C2OC(CO)C(O)C2(F)F)c(=O)n1", "note": "(centres undefined) + CN(C)c1ccc(Nc2c3ccc(NC(=O)CCN4CCCC4)cc3nc3cc(NC(=O)CCN4CCCC4)ccc23)cc1", "values": [{"measurement": "IC50", "setting": "curve of first compound, second compound 0.0316 µM", "value": 44.5, "unit": "nM"}, {"measurement": "IC50", "setting": "curve of first compound, second compound 0.1 µM", "value": 37.7, "unit": "nM"}, {"measurement": "IC50", "setting": "curve of first compound, second compound 0.316 µM", "value": "< 31.6", "unit": "nM"}, {"measurement": "IC50", "setting": "curve of first compound, second compound 1 µM", "value": "< 31.6", "unit": "nM"}, {"measurement": "IC50", "setting": "curve of first compound, second compound 3.16 µM", "value": "< 31.6", "unit": "nM"}, {"measurement": "IC50", "setting": "curve of first compound, second compound 10 µM", "value": "< 31.6", "unit": "nM"}, {"measurement": "viability, T/C", "setting": "second compound 0.0316 µM, first compound 0.0316 µM", "value": 62.2, "unit": "%"}, {"measurement": "viability, T/C", "setting": "second compound 0.0316 µM, first compound 0.1 µM", "value": 21.4, "unit": "%"}, {"measurement": "viability, T/C", "setting": "second compound 0.0316 µM, first compound 0.316 µM", "value": 12.5, "unit": "%"}, {"measurement": "viability, T/C", "setting": "second compound 0.0316 µM, first compound 1 µM", "value": 11.5, "unit": "%"}, {"measurement": "viability, T/C", "setting": "second compound 0.0316 µM, first compound 3.16 µM", "value": 13.7, "unit": "%"}, {"measurement": "viability, T/C", "setting": "second compound 0.0316 µM, first compound 10 µM", "value": 11.4, "unit": "%"}, {"measurement": "viability, T/C", "setting": "second compound 0.1 µM, first compound 0.0316 µM", "value": 54.9, "unit": "%"}, {"measurement": "viability, T/C", "setting": "second compound 0.1 µM, first compound 0.1 µM", "value": 23.9, "unit": "%"}, {"measurement": "viability, T/C", "setting": "second compound 0.1 µM, first compound 0.316 µM", "value": 13.7, "unit": "%"}, {"measurement": "viability, T/C", "setting": "second compound 0.1 µM, first compound 1 µM", "value": 10.9, "unit": "%"}, {"measurement": "viability, T/C", "setting": "second compound 0.1 µM, first compound 3.16 µM", "value": 10.9, "unit": "%"}, {"measurement": "viability, T/C", "setting": "second compound 0.1 µM, first compound 10 µM", "value": 9.57, "unit": "%"}, {"measurement": "viability, T/C", "setting": "second compound 0.316 µM, first compound 0.0316 µM", "value": 44.9, "unit": "%"}, {"measurement": "viability, T/C", "setting": "second compound 0.316 µM, first compound 0.1 µM", "value": 27.4, "unit": "%"}, {"measurement": "viability, T/C", "setting": "second compound 0.316 µM, first compound 0.316 µM", "value": 11.9, "unit": "%"}, {"measurement": "viability, T/C", "setting": "second compound 0.316 µM, first compound 1 µM", "value": 9.85, "unit": "%"}, {"measurement": "viability, T/C", "setting": "second compound 0.316 µM, first compound 3.16 µM", "value": 9.6, "unit": "%"}, {"measurement": "viability, T/C", "setting": "second compound 0.316 µM, first compound 10 µM", "value": 8.28, "unit": "%"}, {"measurement": "viability, T/C", "setting": "second compound 1 µM, first compound 0.0316 µM", "value": 26.9, "unit": "%"}, {"measurement": "viability, T/C", "setting": "second compound 1 µM, first compound 0.1 µM", "value": 27.8, "unit": "%"}, {"measurement": "viability, T/C", "setting": "second compound 1 µM, first compound 0.316 µM", "value": 10.5, "unit": "%"}, {"measurement": "viability, T/C", "setting": "second compound 1 µM, first compound 1 µM", "value": 7.35, "unit": "%"}, {"measurement": "viability, T/C", "setting": "second compound 1 µM, first compound 3.16 µM", "value": 7.21, "unit": "%"}, {"measurement": "viability, T/C", "setting": "second compound 1 µM, first compound 10 µM", "value": 7.95, "unit": "%"}, {"measurement": "viability, T/C", "setting": "second compound 3.16 µM, first compound 0.0316 µM", "value": 15.6, "unit": "%"}, {"measurement": "viability, T/C", "setting": "second compound 3.16 µM, first compound 0.1 µM", "value": 7.01, "unit": "%"}, {"measurement": "viability, T/C", "setting": "second compound 3.16 µM, first compound 0.316 µM", "value": 6.98, "unit": "%"}, {"measurement": "viability, T/C", "setting": "second compound 3.16 µM, first compound 1 µM", "value": 4.89, "unit": "%"}, {"measurement": "viability, T/C", "setting": "second compound 3.16 µM, first compound 3.16 µM", "value": 4.18, "unit": "%"}, {"measurement": "viability, T/C", "setting": "second compound 3.16 µM, first compound 10 µM", "value": 5.05, "unit": "%"}, {"measurement": "viability, T/C", "setting": "second compound 10 µM, first compound 0.0316 µM", "value": 10.3, "unit": "%"}, {"measurement": "viability, T/C", "setting": "second compound 10 µM, first compound 0.1 µM", "value": 3.73, "unit": "%"}, {"measurement": "viability, T/C", "setting": "second compound 10 µM, first compound 0.316 µM", "value": 1.83, "unit": "%"}, {"measurement": "viability, T/C", "setting": "second compound 10 µM, first compound 1 µM", "value": 4.43, "unit": "%"}, {"measurement": "viability, T/C", "setting": "second compound 10 µM, first compound 3.16 µM", "value": 2.4, "unit": "%"}, {"measurement": "viability, T/C", "setting": "second compound 10 µM, first compound 10 µM", "value": 2.72, "unit": "%"}]}
